Test results reported in PubChem BioAssay (NCI).
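Following 48 hours of exposure in 96-well plates, responses at five concentrations were used to interpolate endpoints linearly. The concentration for full growth arrest is given as TGI.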

How the values were obtained:
Assay in all cases: inhibition of tumour cell growth, NCI panel, 48 h
[1] = test system: SF-295 CNS
[2] = test system: SK-MEL-2 melanoma
[3] = test system: MDA-N
[4] = test system: T-47D breast
[5] = test system: EKVX NSCLC

Measured: TGI

CN1Cc2cc(O)c(O)cc2C(O)C1 (stereo not given)
> 100 µM: [1] | [2] | [3] | [4] | [5]
